Target: GMPPNP-loaded KRAS G12C (Homo sapiens, UniProt P01116, G12C)
Assay: KRAS G12C RAF Disruption Assay (HTRF)
Format: biochemical
Settings: recombinant GMPPNP-loaded KRAS G12C (5 nM), 20 min with compound; GST-RAF1 RBD (9 nM); HTRF signal; read-out: KRASG12C RAF Disruption Assay (IC50)
How it was run: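 The read-out is an HTRF 520/495 emission ratio, with IC50 taken from dose-response curves. Compound was first incubated for 20 min at room temperature with active-state KRAS G12C (GMPPNP, 5 nM) in Tris pH 7.5/NaCl/MgCl2/DTT/BSA. RAF1 RBD-GST (9 nM, 20 min) and SA-Tb (0.25 nM, 3 h) were added in turn.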

Chain of GMPPNP-loaded KRAS G12C (P01116 1-188 isoform P01116-2 G12C): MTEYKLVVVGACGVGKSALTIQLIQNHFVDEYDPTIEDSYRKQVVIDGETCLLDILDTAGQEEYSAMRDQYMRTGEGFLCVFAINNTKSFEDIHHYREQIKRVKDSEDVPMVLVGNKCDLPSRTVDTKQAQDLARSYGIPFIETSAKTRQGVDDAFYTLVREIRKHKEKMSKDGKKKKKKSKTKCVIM

Row | IC50 | Structure (SMILES)
1 | 27 nM | C#Cc1c(F)ccc2cc(O)cc(-c3ncc4c(N5C[C@H]6CC[C@@H](C5)N6C(=O)/C(F)=C/c5nccs5)nc(OC[C@@]56CCCN5C[C@H](F)C6)nc4c3F)c12 [Compound 1, (Z)-1-((1R, 5S)-3-(7-(8-ethynyl-7-fluoro-3-hydroxynaphthalen-1-yl)-8-fluoro-2-(((2R, 7aS)-2-fluorotetrahydro-1H-pyrrolizin-7a(5H)-yl)methoxy)pyrido[4,3-d]pyrimidin-4-yl)-3,8-diazabicyclo[3.2.1]octan-8-yl)-2-fluoro-3-(thiazol-2-yl)prop-2-en-1-one]
2 | 5700 nM | C#Cc1cccc2cccc(-c3ncc4c(N(C)C5CCN(C(=O)/C(F)=C/c6nccs6)C5C)nc(OC[C@@]56CCCN5C[C@H](F)C6)nc4c3F)c12 (single isomer, unassigned) [Example 73 trans isomer 2]
3 | 360 nM | N#CC[C@H]1CN(c2nc(OC[C@@]34CCCN3C[C@H](F)C4)nc3c(F)c(-c4cc(F)ccc4C(F)(F)F)ncc23)CCN1C(=O)/C(F)=C/c1ccccn1 [Example 44, 2-((S)-1-((Z)-2-fluoro-3-(pyridin-2-yl)acryloyl)-4-(8-fluoro-7-(5-fluoro-2-(trifluoromethyl)phenyl)-2-(((2R, 7aS)-2-fluorotetrahydro-1H-pyrrolizin-7a(5H)-yl)methoxy)pyrido[4,3-d]pyrimidin-4-yl)piperazin-2-yl)acetonitrile]
4 | 180 nM | C#Cc1c(F)ccc2cc(O)cc(-c3ncc4c(N5C[C@H]6CC[C@@H](C5)N6C(=O)/C(F)=C/c5cnccn5)nc(OC[C@@]56CCCN5C[C@H](F)C6)nc4c3F)c12 [Compound 16, (Z)-1-((1R, 5S)-3-(7-(8-ethynyl-7-fluoro-3-hydroxynaphthalen-1-yl)-8-fluoro-2-(((2R, 7aS)-2-fluorotetrahydro-1H-pyrrolizin-7a(5H)-yl)methoxy)pyrido[4,3-d]pyrimidin-4-yl)-3,8-diazabicyclo[3.2.1]octan-8-yl)-2-fluoro-3-(pyrazin-2-yl)prop-2-en-1-one]
5 | 110 nM | C#Cc1cccc2cccc(-c3ncc4c(N5CC[C@@H]6CN(C(=O)/C(F)=C/c7ncccn7)C[C@@H]65)nc(OC[C@@]56CCCN5C[C@H](F)C6)nc4c3F)c12 [Compound 86, (Z)-1-((3aR, 6aR)-1-(7-(8-ethynylnaphthalen-1-yl)-8-fluoro-2-(((2R, 7aS)-2-fluorotetrahydro-1H-pyrrolizin-7a(5H)-yl)methoxy)pyrido[4,3-d]pyrimidin-4-yl)hexahydropyrrolo[3,4-b]pyrrol-5(1H)-yl)-2-fluoro-3-(pyrimidin-2-yl)prop-2-en-1-one]
6 | 480 nM | C#Cc1cccc2cccc(-c3ncc4c(N5CCN(C(=O)/C(F)=C/c6cncc(C)n6)CC5)nc(OC[C@@]56CCCN5C[C@H](F)C6)nc4c3F)c12 [Compound 125, (Z)-1-(4-(7-(8-ethynylnaphthalen-1-yl)-8-fluoro-2-(((2R, 7aS)-2-fluorotetrahydro-1H-pyrrolizin-7a(5H)-yl)methoxy)pyrido[4,3-d]pyrimidin-4-yl)piperazin-1-yl)-2-fluoro-3-(6-methylpyrazin-2-yl)prop-2-en-1-one]
7 | 110 nM | C#Cc1ccc(F)c2cccc(-c3ncc4c(N5CCN(C(=O)/C(F)=C/c6ccccn6)CC5)nc(OC[C@@]56CCCN5C[C@H](F)C6)nc4c3F)c12 [Compound 96, (Z)-1-(4-(7-(8-ethynyl-5-fluoronaphthalen-1-yl)-8-fluoro-2-(((2R, 7aS)-2-fluorotetrahydro-1H-pyrrolizin-7a(5H)-yl)methoxy)pyrido[4,3-d]pyrimidin-4-yl)piperazin-1-yl)-2-fluoro-3-(pyridin-2-yl)prop-2-en-1-one]
8 | 400 nM | N#CC[C@H]1CN(c2nc(OC[C@@]34CCCN3C[C@H](F)C4)nc3c(F)c(-c4csc5ccccc45)ncc23)CCN1C(=O)/C(F)=C/c1nccs1 [Example 34, 2-((S)-4-(7-(benzo[b]thiophen-3-yl)-8-fluoro-2-(((2R, 7aS)-2-fluorotetrahydro-1H-pyrrolizin-7a(5H)-yl)methoxy)pyrido[4,3-d]pyrimidin-4-yl)-1-((Z)-2-fluoro-3-(thiazol-2-yl)acryloyl)piperazin-2-yl)acetonitrile]
9 | 38 nM | C#Cc1c(F)ccc2cc(O)cc(-c3ncc4c(N5C[C@@]6(NC(=O)/C(F)=C/c7ccccn7)CC[C@@H]5C6)nc(OC[C@@]56CCCN5C[C@H](F)C6)nc4c3F)c12 [Compound 13, (Z)—N-((1R, 4R)-2-(7-(8-ethynyl-7-fluoro-3-hydroxynaphthalen-1-yl)-8-fluoro-2-(((2R, 7aS)-2-fluorotetrahydro-1H-pyrrolizin-7a(5H)-yl)methoxy)pyrido[4,3-d]pyrimidin-4-yl)-2-azabicyclo[2.2.1]heptan-4-yl)-2-fluoro-3-(pyridin-2-yl)acrylamide]
10 | 64 nM | C#Cc1c(F)ccc2cccc(-c3ncc4c(N5CCN(C(=O)/C(F)=C/c6ccccn6)CC5)nc(OC[C@@]56CCCN5C[C@H](F)C6)nc4c3F)c12 [Example 31, (Z)-1-(4-(7-(8-ethynyl-7-fluoronaphthalen-1-yl)-8-fluoro-2-(((2R, 7aS)-2-fluorotetrahydro-1H-pyrrolizin-7a(5H)-yl)methoxy)pyrido[4,3-d]pyrimidin-4-yl)piperazin-1-yl)-2-fluoro-3-(pyridin-2-yl)prop-2-en-1-one]
11 | 59 nM | CN1CCC[C@H]1COc1nc(N2CCN(C(=O)/C(F)=C/c3ccccn3)[C@@H](CC#N)C2)c2cnc(-c3cccc4cccc(Cl)c34)c(F)c2n1 [Compound 19A, 2-((S)-4-(7-(8-chloronaphthalen-1-yl)-8-fluoro-2-(((S)-1-methylpyrrolidin-2-yl)methoxy)pyrido[4,3-d]pyrimidin-4-yl)-1-((Z)-2-fluoro-3-(pyridin-2-yl)acryloyl)piperazin-2-yl)acetonitrile]
12 | 47000 nM | C#Cc1cccc2cccc(-c3ncc4c(N5CCN(C(=O)/C(Cl)=C/c6ccccn6)CC5)nc(OC[C@@]56CCCN5C[C@H](F)C6)nc4c3F)c12 [Compound 126, (Z)-2-chloro-1-(4-(7-(8-ethynylnaphthalen-1-yl)-8-fluoro-2-(((2R, 7aS)-2-fluorotetrahydro-1H-pyrrolizin-7a(5H)-yl)methoxy)pyrido[4,3-d]pyrimidin-4-yl)piperazin-1-yl)-3-(pyridin-2-yl)prop-2-en-1-one]
13 | 60 nM | C#Cc1cccc2cccc(-c3ncc4c(N(C)[C@H]5CN(C(=O)/C(F)=C/c6cnccn6)C[C@H]5F)nc(OC[C@@]56CCCN5C[C@H](F)C6)nc4c3F)c12 [Compound 130, (Z)-1-((3S,4R)-3-((7-(8-ethynylnaphthalen-1-yl)-8-fluoro-2-(((2R, 7aS)-2-fluorotetrahydro-1H-pyrrolizin-7a(5H)-yl)methoxy)pyrido[4,3-d]pyrimidin-4-yl)(methyl)amino)-4-fluoropyrrolidin-1-yl)-2-fluoro-3-(pyrazin-2-yl)prop-2-en-1-one]
14 | 1600 nM | C#Cc1cccc2c(F)ccc(-c3ncc4c(N5CCN(C(=O)/C(F)=C/c6ccccn6)CC5)nc(OC[C@@]56CCCN5C[C@H](F)C6)nc4c3F)c12 [Compound 87, (Z)-1-(4-(7-(8-ethynyl-4-fluoronaphthalen-1-yl)-8-fluoro-2-(((2R, 7aS)-2-fluorotetrahydro-1H-pyrrolizin-7a(5H)-yl)methoxy)pyrido[4,3-d]pyrimidin-4-yl)piperazin-1-yl)-2-fluoro-3-(pyridin-2-yl)prop-2-en-1-one]
15 | 100 nM | C#Cc1cccc2cccc(-c3ncc4c(N5CCN(C(=O)/C(F)=C/c6nccs6)CC5)nc(OC[C@@]56CCCN5C[C@H](F)C6)nc4c3F)c12 [Example 47, (Z)-1-(4-(7-(8-ethynylnaphthalen-1-yl)-8-fluoro-2-(((2R, 7aS)-2-fluorotetrahydro-1H-pyrrolizin-7a(5H)-yl)methoxy)pyrido[4,3-d]pyrimidin-4-yl)piperazin-1-yl)-2-fluoro-3-(thiazol-2-yl)prop-2-en-1-one]
16 | 360 nM | Cn1ncc2cccc(-c3ncc4c(N5CCN(C(=O)/C(F)=C/c6ccccn6)[C@@H](CC#N)C5)nc(OC[C@@]56CCCN5C[C@H](F)C6)nc4c3F)c21 [Example 51, 2-((S)-4-(8-fluoro-2-(((2R, 7aS)-2-fluorotetrahydro-1H-pyrrolizin-7a(5H)-yl)methoxy)-7-(1-methyl-1H-indazol-7-yl)pyrido[4,3-d]pyrimidin-4-yl)-1-((Z)-2-fluoro-3-(pyridin-2-yl)acryloyl)piperazin-2-yl)acetonitrile]
17 | 130 nM | CN1CCC[C@H]1COc1nc(N2CCN(C(=O)/C(F)=C/c3nccs3)[C@@H](CC#N)C2)c2cnc(-c3cccc4ccc(F)cc34)c(F)c2n1 [Example 37, 2-((S)-1-((Z)-2-fluoro-3-(thiazol-2-yl)acryloyl)-4-(8-fluoro-7-(7-fluoronaphthalen-1-yl)-2-(((S)-1-methylpyrrolidin-2-yl)methoxy)pyrido[4,3-d]pyrimidin-4-yl)piperazin-2-yl)acetonitrile]
18 | 120 nM | C#Cc1cccc2cccc(-c3ncc4c(N5CCCN(C(=O)/C(F)=C/c6nccs6)CC5)nc(OC[C@@]56CCCN5C[C@H](F)C6)nc4c3F)c12 [Compound 78, (Z)-1-(4-(7-(8-ethynylnaphthalen-1-yl)-8-fluoro-2-(((2R, 7aS)-2-fluorotetrahydro-1H-pyrrolizin-7a(5H)-yl)methoxy)pyrido[4,3-d]pyrimidin-4-yl)-1,4-diazepan-1-yl)-2-fluoro-3-(thiazol-2-yl)prop-2-en-1-one]
19 | 240 nM | C#Cc1cccc2cccc(-c3nc(OC)c4c(N5CCN(C(=O)/C(F)=C/c6ccccn6)CC5)nc(OC[C@@]56CCCN5C[C@H](F)C6)nc4c3F)c12 [Compound 109, (Z)-1-(4-(7-(8-ethynylnaphthalen-1-yl)-8-fluoro-2-(((2R, 7aS)-2-fluorotetrahydro-1H-pyrrolizin-7a(5H)-yl)methoxy)-5-methoxypyrido[4,3-d]pyrimidin-4-yl)piperazin-1-yl)-2-fluoro-3-(pyridin-2-yl)prop-2-en-1-one]

— US20240067662A1, “KRAS INHIBITORS” (Bristol-Myers Squibb Company, priority 2022, published 2024)
